Data: patent publication US20070117743A1, “New antitumoral compounds” (priority 2003, published 2007)
Read-outs that look alike come from different tables or passages of the source. Where a SMILES comes first, the peptide text is derived from it. Bridges are numbered along the chain shown (N, C = ends). [ ]: non-standard residue; d: D form. The star is where a group is joined. d(aIle) = CC[C@H](C)[C@@H](N)C(=O)O; d(aThr) = C[C@@H](O)[C@@H](N)C(=O)O; hCha = N[C@@H](CCC1CCCCC1)C(=O)O; Hexanoyl(5-Me) = CC(C)CCCC(=O)*; Orn = NCCC[C@H](N)C(=O)O; Dhb = C/C=C(\N)C(=O)O; Aib = CC(C)(N)C(=O)O

Experiments:
Assay type in all cases: cell-based, human
LoVo = assay: SRB colorimetric assay of cell growth and viability, LoVo; conditions: 48 hours exposure; for CC50: read-out: LC50 LOVO
PANC-1 = assay: SRB colorimetric assay of cell growth and viability, PANC-1; conditions: 48 hours exposure; for CC50: read-out: LC50 PANC-1
HT-29 = assay: SRB colorimetric assay of cell growth and viability, HT-29; conditions: 48 hours exposure; for GI50: read-out: GI50 HT-29; for CC50: read-out: LC50 HT-29
K-562 = assay: SRB colorimetric assay of cell growth and viability, K-562; conditions: 48 hours exposure; for CC50: read-out: LC50 K-562
LNCaP = assay: SRB colorimetric assay of cell growth and viability, LNCaP; conditions: 48 hours exposure; for GI50: read-out: GI50 LN-caP; for CC50: read-out: LC50 LN-caP
LoVo-Dox = assay: SRB colorimetric assay of cell growth and viability, LoVo-Dox; conditions: 48 hours exposure; for CC50: read-out: LC50 LOVO-DOX
Summary of the method: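 First, 5×10^3 cells per well attach for 18 hours in RPMI 1640 with 10% FBS at 37° C and 5% CO2. Next, samples spanning 10 to 10^−8 μg/mL are added for 48 hours. Finally, cells are fixed with TCA, stained with SRB for 10 minutes and read at 490 nm.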

SK-MEL-28 = assay: SRB colorimetric assay of cell growth and viability, SK-MEL-28; conditions: 48 hours exposure; for CC50: read-out: LC50 MEL-28
HeLa-APL = assay: SRB colorimetric assay of cell growth and viability, HeLa-APL; conditions: 48 hours exposure; for CC50: read-out: LC50 HELA-APL
A-549 = assay: SRB colorimetric assay of cell growth and viability, A-549; conditions: 48 hours exposure; for GI50: read-out: GI50 A-549; for CC50: read-out: LC50 A-549
HeLa = assay: SRB colorimetric assay of cell growth and viability, HeLa; conditions: 48 hours exposure; for CC50: read-out: LC50 HELA
SK-BR-3 = assay: SRB colorimetric assay of cell growth and viability, SK-BR-3; conditions: 48 hours exposure
IGROV-1 = assay: SRB colorimetric assay of cell growth and viability, IGROV-1; conditions: 48 hours exposure
IGROV-ET = assay: SRB colorimetric assay of cell growth and viability, IGROV-ET; conditions: 48 hours exposure; for CC50: read-out: LC50 IGROV-ET
DU-145 = assay: SRB colorimetric assay of cell growth and viability, DU-145; conditions: 48 hours exposure

C/C=C1\NC(=O)[C@H](CCC2CCCCC2)NC(=O)[C@@H](C(C)C)NC(=O)[C@@H]([C@@H](C)CC)NC(=O)[C@H](NC(=O)[C@H](NC(=O)[C@H](CCCN)NC(=O)[C@H]2CCCN2C(=O)[C@H](NC(=O)[C@@H](NC(=O)[C@@H](NC(=O)[C@H](NC(=O)CCCC(C)C)C(C)C)[C@@H](C)O)C(C)C)C(C)C)[C@@H](C)CC)[C@@H](C)OC(=O)[C@H](C(C)C)NC1=O [Compound 63, 5-MeHex-D-Val-Thr-Val-D-Val-D-Pro-Orn-D-allo-Ile-cyclo[D-allo-Thr-D-alo-Ile-D-Val-hCh-(Z)-Dhb-Val]] ({Hexanoyl(5-Me)}-[dV]TV[dV][dP][Orn][d(aIle)][d(aThr)][d(aIle)][dV][hCha][Dhb]V; ester 8-C)
GI50 (LoVo; LOVO): 122 nM
TGI LOVO (LoVo; LOVO): 2.40E−07 Molar
CC50 (LoVo; LOVO): 469 nM
GI50 (PANC-1; PANC-1): 1050 nM
TGI PANC-1 (PANC-1; PANC-1): 2.10E−06 Molar
CC50 (PANC-1; PANC-1): 4210 nM
TGI HT-29 (HT-29; HT-29): 3.22E−07 Molar
GI50 (HT-29; HT-29): 132 nM
CC50 (HT-29; HT-29): 1130 nM
GI50 (K-562; K-562): 1480 nM
TGI K-562 (K-562; K-562): 2.63E−06 Molar
CC50 (K-562; K-562): 4690 nM
TGI LN-caP (LNCaP; SRB): 1.21E−06 Molar
GI50 (LNCaP; SRB): 336 nM
CC50 (LNCaP; SRB): 2850 nM
GI50 (LoVo-Dox; LOVO-DOX): 130 nM
TGI LOVO-DOX (LoVo-Dox; LOVO-DOX): 2.56E−07 Molar
CC50 (LoVo-Dox; LOVO-DOX): 502 nM
GI50 (SK-MEL-28; SRB): 828 nM
TGI MEL-28 (SK-MEL-28; SRB): 1.77E−06 Molar
CC50 (SK-MEL-28; SRB): 3790 nM
GI50 (HeLa-APL; HELA-APL): 292 nM
TGI HELA-APL (HeLa-APL; HELA-APL): 1.09E−06 Molar
CC50 (HeLa-APL; HELA-APL): 3230 nM
TGI A-549 (A-549; A-549): 1.60E−06 Molar
GI50 (A-549; A-549): 728 nM
CC50 (A-549; A-549): 3480 nM
GI50 (HeLa; HELA): 175 nM
TGI HELA (HeLa; HELA): 4.99E−07 Molar
CC50 (HeLa; HELA): 2060 nM
GI50 (SK-BR-3; SRB): 74.8 nM
LC50 (SK-BR-3; SRB): 465 nM
TGI SK-BR-3 (SK-BR-3; SRB): 1.86E−07 Molar
GI50 (IGROV-1; SRB): 128 nM
LC50 (concentration causing 50% net cell killing) (IGROV-1; SRB): 2000 nM
TGI IGROV (IGROV-1; SRB): 4.29E−07 Molar
GI50 (IGROV-ET; SRB): 76.1 nM
TGI IGROV-ET (IGROV-ET; SRB): 2.01E−07 Molar
CC50 (IGROV-ET; SRB): 529 nM
GI50 (DU-145; SRB): 119 nM
LC50 (concentration causing 50% net cell kill) (DU-145; SRB): 1550 nM
TGI DU-145 (DU-145; SRB): 4.25E−07 Molar

CC[C@H](C)[C@@H](NC(=O)[C@H](CCCN)NC(=O)[C@H]1CCCN1C(=O)[C@H](NC(=O)[C@@H](NC(=O)[C@@H](NC(=O)[C@H](NC(=O)CCCC(C)C)C(C)C)[C@@H](C)O)C(C)C)C(C)C)C(=O)N[C@H]1C(=O)N[C@H]([C@@H](C)CC)C(=O)N[C@H](C(C)C)C(=O)N[C@@H](Cc2ccccc2)C(=O)NCC(=O)N[C@@H](C(C)C)C(=O)O[C@@H]1C [Compound 65, [Gly^2]-KF] ({Hexanoyl(5-Me)}-[dV]TV[dV][dP][Orn][d(aIle)][d(aThr)][d(aIle)][dV]FGV; ester 8-C)
GI50 (LoVo; SRB): 1030 nM
TGI LOVO (LoVo; SRB): 1.98E−06 Molar
CC50 (LoVo; SRB): 3810 nM
GI50 (PANC-1; SRB): ≥ 6890 nM
TGI PANC-1 (PANC-1; SRB): 6.89E−06 Molar
CC50 (PANC-1; SRB): ≥ 6890 nM
TGI HT-29 (HT-29; SRB): 2.54E−06 Molar
GI50 (HT-29; SRB): 1230 nM
CC50 (HT-29; SRB): 5280 nM
GI50 (K-562; SRB): 3000 nM
TGI K-562 (K-562; SRB): 6.89E−06 Molar
CC50 (K-562; SRB): ≥ 6890 nM
TGI LN-caP (LNCaP): 6.89E−06 Molar
GI50 (LNCaP): 3480 nM
CC50 (LNCaP): ≥ 6890 nM
GI50 (LoVo-Dox; SRB): 557 nM
TGI LOVO-DOX (LoVo-Dox; SRB): 1.53E−06 Molar
CC50 (LoVo-Dox; SRB): 3810 nM
GI50 (SK-MEL-28): 1430 nM
TGI MEL-28 (SK-MEL-28): 3.39E−06 Molar
CC50 (SK-MEL-28): ≥ 6890 nM
GI50 (HeLa-APL; SRB): 2230 nM
TGI HELA-APL (HeLa-APL; SRB): 6.89E−06 Molar
CC50 (HeLa-APL; SRB): ≥ 6890 nM
TGI A-549 (A-549; SRB): 4.99E−06 Molar
GI50 (A-549; SRB): 1950 nM
CC50 (A-549; SRB): ≥ 6890 nM
GI50 (HeLa; SRB): 1210 nM
TGI HELA (HeLa; SRB): 1.99E−06 Molar
CC50 (HeLa; SRB): 3260 nM
GI50 (SK-BR-3): 1160 nM
LC50 (SK-BR-3): 4190 nM
TGI SK-BR-3 (SK-BR-3): 2.21E−06 Molar
GI50 (IGROV-1): 1440 nM
LC50 (concentration causing 50% net cell killing) (IGROV-1): 4960 nM
TGI IGROV (IGROV-1): 2.67E−06 Molar
GI50 (IGROV-ET): 806 nM
TGI IGROV-ET (IGROV-ET): 1.69E−06 Molar
CC50 (IGROV-ET): 3560 nM
GI50 (DU-145): 1170 nM
LC50 (concentration causing 50% net cell kill) (DU-145): 4440 nM
TGI DU-145 (DU-145): 2.28E−06 Molar

CC[C@H](C)[C@@H](NC(=O)[C@H](CCCN)NC(=O)[C@H]1CCCN1C(=O)[C@H](NC(=O)[C@@H](NC(=O)[C@@H](NC(=O)[C@H](NC(=O)CCCC(C)C)C(C)C)[C@@H](C)O)C(C)C)C(C)C)C(=O)N[C@H]1C(=O)N[C@H]([C@@H](C)CC)C(=O)N[C@H](C(C)C)C(=O)N[C@@H](Cc2ccccc2)C(=O)NC(C)(C)C(=O)N[C@@H](C(C)C)C(=O)O[C@@H]1C [Compound 66, [Aib^2]-KF] ({Hexanoyl(5-Me)}-[dV]TV[dV][dP][Orn][d(aIle)][d(aThr)][d(aIle)][dV]F[Aib]V; ester 8-C)
GI50 (LoVo; SRB): 1300 nM
TGI LOVO (LoVo; SRB): 2.47E−06 Molar
CC50 (LoVo; SRB): 4710 nM
GI50 (PANC-1; SRB): ≥ 6760 nM
TGI PANC-1 (PANC-1; SRB): 6.76E−06 Molar
CC50 (PANC-1; SRB): ≥ 6760 nM
TGI HT-29 (HT-29; SRB): 2.54E−06 Molar
GI50 (HT-29; SRB): 1280 nM
CC50 (HT-29; SRB): 5060 nM
GI50 (K-562; SRB): ≥ 6760 nM
TGI K-562 (K-562; SRB): 6.76E−06 Molar
CC50 (K-562; SRB): ≥ 6760 nM
TGI LN-caP (LNCaP): 6.76E−06 Molar
CC50 (LNCaP; SRB): ≥ 6760 nM
GI50 (LNCaP): 4630 nM
GI50 (LoVo-Dox; SRB): 1070 nM
TGI LOVO-DOX (LoVo-Dox; SRB): 2.26E−06 Molar
CC50 (LoVo-Dox; SRB): 4800 nM
GI50 (SK-MEL-28): 2240 nM
TGI MEL-28 (SK-MEL-28): 6.14E−06 Molar
CC50 (SK-MEL-28; SRB): ≥ 6760 nM
GI50 (HeLa-APL; SRB): 3410 nM
TGI HELA-APL (HeLa-APL; SRB): 6.76E−06 Molar
CC50 (HeLa-APL; SRB): ≥ 6760 nM
TGI A-549 (A-549; SRB): 6.76E−06 Molar
GI50 (A-549; SRB): 4960 nM
CC50 (A-549; SRB): ≥ 6760 nM
GI50 (HeLa; SRB): 3170 nM
TGI HELA (HeLa; SRB): 6.76E−06 Molar
CC50 (HeLa; SRB): ≥ 6760 nM
GI50 (SK-BR-3): 1490 nM
TGI SK-BR-3 (SK-BR-3): 2.67E−06 Molar
LC50 (SK-BR-3; SRB): 4770 nM
GI50 (IGROV-1): 1570 nM
TGI IGROV (IGROV-1): 2.82E−06 Molar
LC50 (concentration causing 50% net cell killing) (IGROV-1; SRB): 5050 nM
GI50 (IGROV-ET): 1210 nM
TGI IGROV-ET (IGROV-ET): 2.43E−06 Molar
CC50 (IGROV-ET; SRB): 4890 nM
GI50 (DU-145): 1360 nM
TGI DU-145 (DU-145): 2.73E−06 Molar
LC50 (concentration causing 50% net cell kill) (DU-145; SRB): 5450 nM
